From patent US20230277669A1, “USES OF UROLITHINS” (Amazentis SA, priority 2022, published 2023)

Experiments:
[1] = tested on: CAR-T cells specific for carcinoembryonic antigen (CEA); test: UA applied to previously frozen CEA-specific CAR-T cells; format: cell-based, human
Pgam5^-/- CD8^+ T cells = test: In vitro stimulation of PGAM5-/- CD8+ cells in presence of UA; format: cell-based, PGAM5^-/- mice
Method: (FIG. 5H) Immunofluorescence of PGAM5 (green) in CD3+ cells after in vitro stimulation with aCD3/aCD28 stimulation beads for six hours. Cells were stained with Mitotracker Red to display mitochondrial colocalisation in the DMSO control as opposed to cytosolic release in the UA sample (m, mitochondrial co-localization; c, cytoplasmic localization) Scale=5 um. (FIG. 5I) In vitro stimulation of PGAM5^-/- CD8+ cells: Percentage of TSCM after 48 h of stimulation with aCD3/aCD28 stimulation beads in the presence of UA. All data depicts mean ± SD, n=4 per group. Statistics shown here depict unpaired, two-sided t-test and Mann-Whitney test (I; (DMSO vs UA25; DMSO vs UA50). *p < 0.05; n.s. not significant. (FIG. 5J) Percentage of CD95+ er 48 h of stimulation with aCD3/aCD28 stimulation beads in the presence of UA. (FIG. 5K) CD95+er 48 h of stimulation with aCD3/aCD28 stimulation beads in the presence of UA.
(FIG. 5L) UA induces PGC-1α expression in stimulated CD8+ cells. PGC-1α MFI at 48 h upon stimulation, as assessed by intracellular staining, is shown (n=3). One of two independent experiments are shown. Data are mean ± SD, statistical analysis was performed by two-sided t-test (p**<0.01). (FIG. 5M) Mitochondrial content of TIL CD8+ cells harvested from APTK-carrying mice, fed UA or control diet as depicted in FIG. 1J. Assessed by Mitotracker Red staining. Data are mean ± SD, *p < 0.05 by two-sided t-test. (FIG. 5N) Mitophagy and subsequent PGAM5 release drive PGC-1α upregulation. PGC-1α expression of CD8+ cells derived from Pink1^-/- KO mice upon 48 h stimulation in vitro in the presence of UA or DMSO control (n=4). Data are mean ± SD, statistical analysis was performed by two-sided t-test. Depicts one of two independent experiments. (FIG. 5O) Mitophagy and subsequent PGAM5 release drive PGC-1 α upregulation. PGC-1α expression of CD8+ cells derived from PGAM5^-^/- mice upon 48 h stimulation in vitro in the presence of UA or DMSO control (n=4). Data are mean ± SD, statistical analysis was performed by two-sided t-test. […] Cells were co-treated with DMSO, UA and an inhibitor of PGC-1α (PGC-1αi) as indicated (n=4). One of two independent experiments are shown. Data are mean ± SD, statistical analysis was performed by two-sided t-test (p**<0.01; ***p <0.001; n.s. not significant).(FIG. 5Q) Urolithin A induces TSCM in human CD8+ cells: Schematic overview. PBMC were isolated from healthy donors, prior to T cell purification and in vitro stimulation via aCD3/aCD28 stimulation beads at the presence of UA or DMSO control. (FIG. 5R) Quantification of human TSCM (n=4). Representative data of one out of five donors with the same result are shown. (FIG. 5S) Quantification of TMRM^loCD8+ human cells 48 h after activation in the presence of UA or DMSO control (n=4). (FIG. 5T) TCF1 expression in human CD8 cells as assessed by flow cytometry (n=4). All data are mean ± SD; statistical analysis was performed by two-sided t-test (*p < 0.05; p**<0.01; p****0.0001).
(FIG. 8B) qPCR analysis of selected Wnt target genes 24 h after stimulation (n=4). Data are mean ± SEM, statistical analysis was performed by two-sided t-test (* p<0.05, ** p<0.01, *** p<0.001). (FIG. 8C) CD8+ cells from PGAM5^-/- mice display an adequate mitophagy response upon UA treatment: Flow cytometry analysis of lysosome formation after six hours of in vitro stimulation via aCD3/aCD28 stimulation beads (n=4). (FIG. 8D) CD8+ cells from PGAM5^-/- mice display an adequate mitophagy response upon UA treatment: Mitotracker Red signal after 24 h in PGAM5^-/- CD8+ stimulated in vitro at the presence of UA or vehicle control. Congruent histograms are shown. Data are mean ± SD, statistical analysis was performed by two-sided t-test (* p<0.05, ** p<0.01, *** p<0.001). (FIG. 8E) Cytosolic fractionation Western blot of Pink1^-/- CD3+ cells 6 h after stimulation with plate-bound aCD3/aC28 antibodies in the presence of Urolithin A or DMSO control. […]

O=c1oc2cc(O)ccc2c2ccc(O)cc12 [Urolithin A]
CAR TSCM formation [1]: strongly enhanced CAR TSCM formation | mitochondrial content (Mitotracker Red) (Pgam5^-/- CD8^+ T cells; 24 h): reduced mitochondrial content | PGC-1α expression (Pgam5^-/- CD8^+ T cells; 48 h): failed to enhance | TCF1 (Pgam5^-/- CD8^+ T cells; 48 h): failed to upregulate | UA-dependent expansion of CD44-CD62L+Sca1hi TSCM cells (Pgam5^-/- CD8^+ T cells; 48 h): blocked the UA-dependent expansion | memory marker CD95 (Pgam5^-/- CD8^+ T cells; 48 h): failed to upregulate | lysosome formation (Pgam5^-/- CD8^+ T cells; six hours): still enhanced lysosome formation
